Source: publication PMC8457121, “From Kinase Inhibitors to Multitarget Ligands as Powerful Drug Leads for Alzheimer's Disease using Protein‐Templated Synthesis” (Angewandte Chemie (International Ed. in English), 2021)

Legend:
[1] = PAMPA-BBB test; assay type: in vitro ADME; details: for Papp at 2.5 h / CNS prediction / Pe exp: PAMPA-BBB; for Papp at 2.5 h / Pe exp: PBS pH 7.4/DMSO 95/5, 2.5 h, room temperature; for Papp at 2.5 h: read-out: Pe exp
Experimental: dissolved in 250 µL of DMSO (Sigma-Aldrich). 25 µL of these compound stock
solutions were taken and 225 µL of DMSO and 4750 µL of PBS pH 7.4 buffer
compound concentration in the range of 0.2 to 1.1 mM. Compounds to be
µL of DMSO and 4750 µL of PBS pH 7.4 was carefully added to afford a final
compound concentration in the range of 0.2 to 1.1 mM. Solutions were filtered
using filter PDVF membrane units (diameter 30 mm, pore size 0.45 μm, Symta).
10 µL of each solution were taken and diluted 10-fold with PBS/DMSO (95/5) for
HPLC-MS analysis. The acceptor 96-well plate (Multiscreen®, catalog no.
MAMCS9610, Millipore) was filled with 180 µL of PBS/DMSO (95/5). The donor
96-well plate (Multiscreen® IP Sterile Plate PDVF membrane, pore size is 0.45
M, catalog no. MAIPS4510, Millipore) was coated with 4 µL 20 mg·mL-1 of
for 5 min and then 180 µL of each compound solution was added. Then the donor
plate was put on the acceptor plate and kept for 2.5 h at room temperature. After
incubation, samples were collected from the acceptor plate and diluted 10-fold
with PBS/DMSO (95/5) for HPLC-MS analysis and compared to HPLC-MS of
initial solutions. Absorbance peak of each compound was determined by MS
detection and was used to calculate the concentration of compounds and
Every sample was analysed in two independent
runs. HPLC-MS was performed using a HPLC-MS equipment from Thermo
Fisher coupled to a Finnigan TM LXQ TM detector. Each compound was
analysed using a Sunfire column C18, 3.5 μm (50 mm x 4.6 mm) and acetonitrile
and Milli-Q water (with 0.1% formic acid) as mobile phase. The standard gradient

[2] = biological target: T1, LRRK2 (Homo sapiens, UniProt Q5S007); assay: LRRK2 inhibition enzymatic assay (Adapta, ThermoFisher); assay type: biochemical
T1 construct: purchased ThermoFisher (assay run by the company)
T1 sequence (Q5S007 whole entry): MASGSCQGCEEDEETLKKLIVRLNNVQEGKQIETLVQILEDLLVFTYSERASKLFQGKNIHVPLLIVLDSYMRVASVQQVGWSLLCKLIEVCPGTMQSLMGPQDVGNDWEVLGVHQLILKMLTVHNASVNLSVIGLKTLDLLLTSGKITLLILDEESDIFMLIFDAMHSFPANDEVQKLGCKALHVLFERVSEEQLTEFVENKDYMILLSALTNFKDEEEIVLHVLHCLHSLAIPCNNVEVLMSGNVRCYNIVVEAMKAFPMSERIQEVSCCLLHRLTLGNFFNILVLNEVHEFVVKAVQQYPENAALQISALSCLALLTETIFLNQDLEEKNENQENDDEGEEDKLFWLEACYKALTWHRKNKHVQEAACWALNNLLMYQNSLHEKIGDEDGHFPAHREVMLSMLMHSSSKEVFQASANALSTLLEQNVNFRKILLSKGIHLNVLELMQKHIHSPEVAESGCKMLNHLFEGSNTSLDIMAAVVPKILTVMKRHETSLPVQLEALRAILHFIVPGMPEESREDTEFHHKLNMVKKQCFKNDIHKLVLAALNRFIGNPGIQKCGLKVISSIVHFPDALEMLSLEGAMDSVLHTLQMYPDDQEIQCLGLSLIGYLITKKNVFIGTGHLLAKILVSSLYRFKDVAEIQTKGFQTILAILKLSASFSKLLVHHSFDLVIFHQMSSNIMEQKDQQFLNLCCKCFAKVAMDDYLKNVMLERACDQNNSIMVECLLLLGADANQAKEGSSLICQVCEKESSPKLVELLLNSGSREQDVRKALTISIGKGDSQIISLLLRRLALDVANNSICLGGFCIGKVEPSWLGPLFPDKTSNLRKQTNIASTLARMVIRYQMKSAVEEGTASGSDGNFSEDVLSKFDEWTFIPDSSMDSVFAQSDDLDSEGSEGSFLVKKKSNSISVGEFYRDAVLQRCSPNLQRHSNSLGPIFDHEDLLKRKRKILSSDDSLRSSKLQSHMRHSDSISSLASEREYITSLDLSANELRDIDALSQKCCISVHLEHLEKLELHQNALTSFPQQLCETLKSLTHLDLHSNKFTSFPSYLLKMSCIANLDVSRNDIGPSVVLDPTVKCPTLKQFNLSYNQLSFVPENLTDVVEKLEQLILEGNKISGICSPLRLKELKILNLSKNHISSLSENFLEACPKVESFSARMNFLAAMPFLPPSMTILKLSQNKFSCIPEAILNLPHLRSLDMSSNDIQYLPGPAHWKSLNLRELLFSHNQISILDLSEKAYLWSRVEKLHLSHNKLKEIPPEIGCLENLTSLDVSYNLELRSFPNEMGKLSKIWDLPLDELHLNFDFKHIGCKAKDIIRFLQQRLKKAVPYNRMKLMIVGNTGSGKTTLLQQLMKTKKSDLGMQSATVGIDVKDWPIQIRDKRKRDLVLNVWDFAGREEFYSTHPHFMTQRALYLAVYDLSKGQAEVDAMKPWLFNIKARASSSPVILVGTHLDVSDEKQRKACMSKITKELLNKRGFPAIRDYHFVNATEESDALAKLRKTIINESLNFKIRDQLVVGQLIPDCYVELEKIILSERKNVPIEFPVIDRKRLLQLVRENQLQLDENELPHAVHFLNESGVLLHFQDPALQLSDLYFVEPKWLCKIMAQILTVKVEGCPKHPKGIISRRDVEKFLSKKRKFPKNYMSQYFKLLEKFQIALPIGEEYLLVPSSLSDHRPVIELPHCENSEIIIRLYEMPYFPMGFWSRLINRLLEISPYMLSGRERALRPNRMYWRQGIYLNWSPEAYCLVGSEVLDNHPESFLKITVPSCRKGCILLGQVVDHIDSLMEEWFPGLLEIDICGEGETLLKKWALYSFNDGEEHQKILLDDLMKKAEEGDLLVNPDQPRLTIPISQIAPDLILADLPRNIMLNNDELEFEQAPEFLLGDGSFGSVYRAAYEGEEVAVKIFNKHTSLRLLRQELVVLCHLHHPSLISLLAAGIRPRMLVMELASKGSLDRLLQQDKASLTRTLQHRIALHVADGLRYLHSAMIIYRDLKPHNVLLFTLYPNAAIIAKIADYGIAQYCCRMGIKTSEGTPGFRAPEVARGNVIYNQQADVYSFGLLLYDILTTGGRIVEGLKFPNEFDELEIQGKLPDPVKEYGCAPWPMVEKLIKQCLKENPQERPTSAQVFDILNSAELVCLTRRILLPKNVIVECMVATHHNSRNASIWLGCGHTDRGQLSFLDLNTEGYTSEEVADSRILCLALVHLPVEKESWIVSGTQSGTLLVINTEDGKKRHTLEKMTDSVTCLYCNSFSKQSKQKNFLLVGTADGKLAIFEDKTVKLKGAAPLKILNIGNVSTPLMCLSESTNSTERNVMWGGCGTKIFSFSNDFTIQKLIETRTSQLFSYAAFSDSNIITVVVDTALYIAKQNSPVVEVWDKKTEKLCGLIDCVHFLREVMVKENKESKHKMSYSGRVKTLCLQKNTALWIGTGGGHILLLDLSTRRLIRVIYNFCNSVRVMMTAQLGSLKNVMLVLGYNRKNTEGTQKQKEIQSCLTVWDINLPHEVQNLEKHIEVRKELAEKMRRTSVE

[3] = biological target: CK1δ (Homo sapiens, UniProt P48730); assay: CK1δ inhibition enzymatic assay (Kinase-Glo); assay type: biochemical
CK1δ, sequence (P48730 whole entry): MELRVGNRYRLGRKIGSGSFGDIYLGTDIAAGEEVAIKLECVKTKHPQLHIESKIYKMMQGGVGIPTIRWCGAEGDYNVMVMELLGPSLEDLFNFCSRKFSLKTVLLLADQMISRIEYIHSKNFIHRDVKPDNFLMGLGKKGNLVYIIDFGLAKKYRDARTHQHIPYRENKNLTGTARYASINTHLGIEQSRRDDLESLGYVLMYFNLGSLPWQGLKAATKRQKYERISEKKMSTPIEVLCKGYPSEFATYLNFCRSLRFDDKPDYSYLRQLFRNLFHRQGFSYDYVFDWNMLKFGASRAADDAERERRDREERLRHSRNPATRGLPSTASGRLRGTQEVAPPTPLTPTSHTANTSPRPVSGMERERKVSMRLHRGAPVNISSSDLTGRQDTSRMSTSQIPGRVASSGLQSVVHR
Experimental: CK1δ inhibition enzymatic assay. The “Kinase-Glo” Kit from Promega was used to screen compounds for activity against CK1δ Kinase-Glo assays were performed in assay buffer using black 96-well plates. In a typical assay, 10 μl of test compound (dissolved in DMSO at 1 mM concentration and diluted in advance in assay buffer to the desired concentration) 10 μl (16 ng) of enzyme were added to each well followed by 20 µl of assay buffer containing 0,1 % casein as substrate […]
exceed 1%. After 60-min incubation at 30°C the enzymatic reaction was stopped […]
with 40 μl of Kinase-Glo reagent. Glow-type luminescence was recorded after 10 min using a FLUOstar Optima (BMG Labtechnologies GmbH, Offenburg, Germany) multimode reader. The activity is proportional to the difference of the total and consumed ATP. The inhibitory activities were calculated on the basis of maximal activities measured in the absence of inhibitor. The IC50 was defined as the concentration of each compound that reduces a 50% the enzymatic activity with respect to that without inhibitors. […]
Ibérica SAU). Kinase-Glo Luminescent Kinase Assay was obtained from Promega (Promega Biotech Ibérica, SL). ATP and all other reagents were from Sigma Aldrich (St. Louis, MO). Assay buffer contained 50 mM HEPES (pH 7.5), 1 mM EDTA, 1 mM EGTA, and 15 mM magnesium acetate. […]

[4] = biological target: BACE1 (Homo sapiens, UniProt P56817); assay: BACE1 enzymatic assay (FRET); assay type: biochemical
BACE1, sequence (P56817 46-501): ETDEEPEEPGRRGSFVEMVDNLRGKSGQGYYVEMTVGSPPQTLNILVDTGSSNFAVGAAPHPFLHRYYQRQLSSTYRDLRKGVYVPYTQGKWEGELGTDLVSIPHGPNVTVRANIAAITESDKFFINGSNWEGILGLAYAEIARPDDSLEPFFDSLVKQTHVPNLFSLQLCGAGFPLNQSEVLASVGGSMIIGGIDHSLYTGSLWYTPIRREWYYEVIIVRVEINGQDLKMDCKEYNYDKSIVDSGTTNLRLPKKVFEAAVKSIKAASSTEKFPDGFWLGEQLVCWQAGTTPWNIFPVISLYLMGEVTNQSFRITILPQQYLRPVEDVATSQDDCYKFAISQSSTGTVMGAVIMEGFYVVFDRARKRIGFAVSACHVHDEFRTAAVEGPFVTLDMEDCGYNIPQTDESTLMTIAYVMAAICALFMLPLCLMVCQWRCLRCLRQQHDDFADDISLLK
Experimental: BACE1 enzymatic assay. BACE1 in vitro assays were carried out using FRET.
μM) carrying the Swedish mutation and containing a rhodamine as a fluorescence donor and a quencher acceptor at each end was used. The intact substrate is weakly fluorescent and becomes highly fluorescent upon enzymatic cleavage.
The assays were conducted in 50 mM sodium acetate buffer, pH 4.5, in a final

[5] = biological target: T2, Human recombinant GSK3β (Homo sapiens, UniProt P49841); assay: GSK3β inhibition enzymatic assay (Kinase-Glo); assay type: biochemical
T2 construct: purchased Millipore (Millipore Ibérica SAU)
T2 sequence (P49841 whole entry): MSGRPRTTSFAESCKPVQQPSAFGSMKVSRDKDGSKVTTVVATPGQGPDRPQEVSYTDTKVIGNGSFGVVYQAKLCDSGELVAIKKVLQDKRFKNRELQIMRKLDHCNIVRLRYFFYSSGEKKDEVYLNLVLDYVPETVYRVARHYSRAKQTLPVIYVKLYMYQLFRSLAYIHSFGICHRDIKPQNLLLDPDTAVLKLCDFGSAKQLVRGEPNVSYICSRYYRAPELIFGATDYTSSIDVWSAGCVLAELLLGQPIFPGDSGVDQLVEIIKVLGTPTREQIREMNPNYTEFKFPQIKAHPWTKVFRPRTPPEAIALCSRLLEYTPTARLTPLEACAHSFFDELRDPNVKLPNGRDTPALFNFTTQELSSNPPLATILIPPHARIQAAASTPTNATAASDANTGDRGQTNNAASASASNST
Experimental: GSK3β inhibition enzymatic assay. Human recombinant GSK3β and the pre-phosphorylated polypeptide substrate were purchased from Millipore (Millipore Ibérica SAU). Kinase-Glo Luminescent Kinase Assay was obtained from Promega (Promega Biotech Ibérica, SL). ATP and all other reagents were from Sigma Aldrich (St. Louis, MO). Assay buffer contained 50 mM HEPES (pH 7.5), 1 mM EDTA, 1 mM EGTA, and 15 mM magnesium acetate.
Kinase-Glo assays were performed in assay buffer using black 96-well plates. In a typical assay, 10 μL (10 μM) of test compound (dissolved in DMSO) at 1 mM concentration and diluted in advance in assay buffer to the desired concentration) and 10 μL (20 ng) of enzyme were added to each well followed by 20 μL of assay buffer containing 25 μM substrate and 1 μM ATP. The final DMSO concentration […]
After 30 min incubation at 30 °C, the enzymatic reaction was stopped with 40 μL of Kinase-Glo reagent. Glow-type luminescence was recorded after 10 min using a FLUOstar Optima (BMG
Labtechnologies GmbH, Offenburg, Germany) multimode reader. The activity is proportional to the difference of the total and consumed ATP. The inhibitory activities were calculated based on maximal activities measured in the absence of inhibitor. The IC50 was defined as the concentration of each compound that reduces a 50 % the enzymatic activity with respect to that without inhibitors. […]

[6] = test system: SK-APP cells; assay: Aβ40 and Aβ42 levels in SK-APP cells (sandwich ELISA); assay type: cell-based, human; details: 10 μM, 48 h treatment
Experimental: page 35: enzyme concentration (1 U/mL). Inhibitor screening at 10 μM. The mixture was incubated for 60 min at 25 °C under dark conditions and then stopped with 2.5 M sodium acetate. Fluorescence was measured with a FLUOstar Optima (BMG Labtechnologies GmbH, Offenburg, Germany) microplate reader at 545 nm excitation and 585 nm emission. Evaluation of BACE Inhibitors Kinetics. To evaluate the mechanism of BACE1 inhibition of the compounds, substrate-dependent kinetic experiments were performed. BACE activity were measured at five different concentrations substrate (1000 -62,5 μM) in the absence or presence of the select inhibitor at two different concentrations. The results are presented as double reciprocal Lineweaver-Burk plots (1/V vs 1/[S]) Figure S1. Cell culture and treatments. SK-N-MC cells stably expressing the human isoform APP695 (SK-APP cell line […]1) were generated by transfection of SK-N-MC cells with a pCDNA3-APP expression vector, and kindly provided by Dr. MJ Bullido. These cells were cultured in DMEM (Thermo Fisher) medium supplemented with 10% FBS (Thermo Fisher), 1 mM glutamine (Sigma- Aldrich), and 100 unit/ml penicillin (Lonza) and […] streptomycin (Lonza). Cell cultures were maintained in a 5% CO2, humidified atmosphere at 37 °C. SH-SY5Y cells were obtained from the American Type Culture Collection and grown in DMEM media (Gibco), supplemented with 10% foetal bovine serum, and 1% penicillin/streptomycin (Invitrogen). The cells were grown at 37 °C in a humidified 5% CO2 atmosphere. For the treatments, all the compounds were dissolved in dimethyl sulfoxide (DMSO, from Sigma) at an initial stock concentration of 10 mM. […] working solutions were obtained from the dilution of the stock solutions in DMEM media (DMSO control solutions were prepared similarly to the compounds). Okadaic acid (OA, Sigma-Aldrich) was dissolved in DMSO at an initial stock concentration of 60 μM and a 250X working solution was obtained from the dilution of the stock solution in DMEM. All the compounds (250x solutions) were added directly into the wells at the indicated final concentrations for 1 hour before the treatment with OA at a final concentration of 30 nM. DMSO was added at the appropriate concentration to the 34 page 36: control-untreated cells. The cells were maintained in the presence of the OA and the different compounds for 24h. Measurement of cell viability. Cell viability assays were carried out using a 3- […] (Sigma-Aldrich) in 96-well cell culture plates. All cells were then incubated with a 0.5 mg/ml MTT solution (Sigma-Aldrich) at 37 °C for 4 h and then with cell lysis […] The absorbance values were determined at 590 nm. Cell viability was expressed as a percent of OD of control cells, the value of which was defined as 100%. Cell viability in SH-SY5Y were carried out following the same procedure but seeding the cells in 24 well multiplates. Absorbance was measured using a Varioskan Flash multiplate reader (Thermo Scientific) at test 550 nm and reference 664 nm wave-lengths. Compound concentration for SK-APP line was 10 μM and for the SH-SY5Y was 1 and 5 μM. Immunoassays. Levels of Aβ40 and Aβ42 were quantified by sandwich ELISAs (Wako, Osaka, Japan) from cellular lysates and conditioned media collected. CNS penetration: in vitro PAMPA-BBB test. Prediction of the brain penetration was evaluated using a parallel artificial membrane permeability assay (PAMPA).1 Nine quality control compounds (mentioned below) of know BBB permeability were included in each experiment to validate the analysis set.2 Commercial drugs […] dissolved in 250 μL of DMSO (Sigma-Aldrich). 25 μL of these compound stock solutions were taken and 225 μL of DMSO and 4750 μL of PBS pH 7.4 buffer were added to reach 5% of DMSO concentration in the experiment and a final […] Compounds to be determined their ability to pass the brain barrier (0.5-1 mg) were dissolved in 250 μL of DMSO and 4750 μL of PBS pH 7.4 was carefully added to afford a final […]

[7] = test system: SH-SY5Y cells; assay: Okadaic acid-induced cell death model, viability of SH-SY5Y cells; assay type: cell-based, human; details: OA 30 nM, 24 h, compound 1 and 5 µM
Experimental: (§1) page 35: enzyme concentration (1 U/mL). Inhibitor screening at 10 μM. The mixture was incubated for 60 min at 25 °C under dark conditions and then stopped with 2.5 M sodium acetate. Fluorescence was measured with a FLUOstar Optima (BMG Labtechnologies GmbH, Offenburg, Germany) microplate reader at 545 nm excitation and 585 nm emission. Evaluation of BACE Inhibitors Kinetics. To evaluate the mechanism of BACE1 inhibition of the compounds, substrate-dependent kinetic experiments were performed. BACE activity were measured at five different concentrations substrate (1000 -62,5 μM) in the absence or presence of the select inhibitor at two different concentrations. The results are presented as double reciprocal Lineweaver-Burk plots (1/V vs 1/[S]) Figure S1. Cell culture and treatments. […] The absorbance values were determined at 590 nm. Cell viability was expressed as a percent of OD of control cells, the value of which was defined as 100%. […] Absorbance was measured using a Varioskan Flash multiplate reader (Thermo Scientific) at test 550 nm and reference 664 nm wave-lengths. […] Levels of Aβ40 and Aβ42 were quantified by sandwich ELISAs (Wako, Osaka, Japan) from cellular lysates and conditioned media collected. […] Compounds to be determined their ability to pass the brain barrier (0.5-1 mg) were dissolved in 250 μL of DMSO and 4750 μL of PBS pH 7.4 was carefully added to afford a final […]

[8] = test system: SK-APP cells; assay: Cell viability (MTT) in SK-APP cells; assay type: cell-based, human; details: 10 μM, 48 hours
Experimental: as §1

SMILES	Papp at 2.5 h [1] [×10⁻⁶ cm/s]	IC50 [2] [µM]	IC50 [4] [µM]	CNS prediction [1]	IC50 [3] [µM]	further results
CNCCCN1c2ccccc2CCc2ccccc21 [Desipramine, desipramine, reference compound]	7.44 ± 0.9					
O=C(Cc1ccc(OCc2cn(CCc3ccc(C(=O)Nc4nc5ccccc5s4)cc3)nn2)cc1)Nc1nc2ccccc2s1 [compound 30]	3.58 ± 0.12	3.19 ± 1.01	8.57 ± 0.45	CNS+ (CNS+ (green) for compounds with Pe >3.20×10^−6 cm s^−1)		inhibition at 10 µM ([3]; read-out: CK1δ enzyme inhibition at 10 μM): 30%; melting point: 239 to 240 °C
CCn1sc(=O)n(Cc2cn(Cc3ccc(CC(=O)Nc4nc5ccccc5s4)cc3)nn2)c1=O [compound 15]	5.08 ± 0.63			CNS+ (CNS+ (green) for compounds with Pe >3.20×10^−6 cm s^−1)	1.25 ± 0.21	IC50 [5]: 3.85 ± 0.32 µM; inhibition at 10 µM ([4]; read-out: BACE1 enzyme inhibition at 10 μM): 30%; Aβ40 levels in cellular lysates [6]: decrease; Aβ40 levels in extracellular fluid [6]: decrease; Aβ42 levels in cellular lysates (intracellular) [6]: unchanged; Aβ42 levels in extracellular fluid [6]: significant decrease; Neuroprotection against okadaic acid (OA) toxicity [7]: rescue from the toxic effect of OA
O=C(Nc1nc2ccccc2s1)c1ccc(CSCCCSCc2ccc(C(=O)Nc3nc4ccccc4s3)cc2)cc1 [compound 3]		1.88	7.14			
COc1ccc2nc(NC(=O)Cc3ccc(OCc4cn(CCc5ccc(C(=O)Nc6nc7ccccc7s6)cc5)nn4)cc3)sc2c1 [compound 29]		0.44 ± 0.1	11 ± 1.36	CNS- (CNS‐ (red) for compounds with Pe <1.88×10^−6 cm s^−1)	12.6 ± 0.7	Pe exp [1]: 0 10-6 cm s-1
CCn1cc(C(=O)O)c(=O)c2cc(F)c(N3CCNCC3)nc21 [Enoxacine, enoxacine, reference compound]						Pe exp [1]: 1.41 ± 0.05 10-6 cm s-1
O=C(Cc1ccc(Cn2cc(COc3ccc(/N=C4\C(=O)Nc5ccccc54)cc3)nn2)cc1)Nc1nc2ccccc2s1 [compound 16]	3.07 ± 0.25	13.5 ± 5.23	7.24 ± 0.38	CNS+/CNS- (CNS+/CNS‐ (yellow) for compounds with Pe between both values)	6.47 ± 0.68	Cell viability of SK-APP cells [8]: significant decrease
CCOC(=O)c1sc(NC(=O)Cc2ccc(OCc3cn(Cc4ccc(CC(=O)Nc5nc6ccccc6s5)cc4)nn3)cc2)nc1C [compound 31]			6.76 ± 0.61		5.4 ± 0.91	inhibition at 10 µM ([5]; read-out: GSK3β enzyme inhibition at 10 μM): 26%; Solubility in the conditions of the PAMPA experiment ([1]; PBS pH 7.4 with 5% DMSO): insoluble
O=C(Cc1ccc(OCc2cn(Cc3ccc(C(=O)Nc4nc5ccccc5s4)cc3)nn2)cc1)Nc1nc2ccc(C(F)(F)F)cc2s1 [compound 28]	0.65 ± 0.18	0.71 ± 0.26	7.21 ± 0.35	CNS- (CNS‐ (red) for compounds with Pe <1.88×10^−6 cm s^−1)	0.4 ± 0.06	
